Data published in patent US20030176314A1, “Compounds for the treatment of pain” (priority 2001, published 2003).

target: T1, rat NPFF1 receptor (Rattus norvegicus, UniProt Q9EP86); assay: Functional assay (agonist potency, intrinsic activity) at cloned rat NPFF1 receptor; format: cell-based; settings: Table 4; percent of maximum response elicited by neuropeptide FF
T1 construct: expressed in transfected cells; host or cells: not given
T1 sequence (Q9EP86 whole entry): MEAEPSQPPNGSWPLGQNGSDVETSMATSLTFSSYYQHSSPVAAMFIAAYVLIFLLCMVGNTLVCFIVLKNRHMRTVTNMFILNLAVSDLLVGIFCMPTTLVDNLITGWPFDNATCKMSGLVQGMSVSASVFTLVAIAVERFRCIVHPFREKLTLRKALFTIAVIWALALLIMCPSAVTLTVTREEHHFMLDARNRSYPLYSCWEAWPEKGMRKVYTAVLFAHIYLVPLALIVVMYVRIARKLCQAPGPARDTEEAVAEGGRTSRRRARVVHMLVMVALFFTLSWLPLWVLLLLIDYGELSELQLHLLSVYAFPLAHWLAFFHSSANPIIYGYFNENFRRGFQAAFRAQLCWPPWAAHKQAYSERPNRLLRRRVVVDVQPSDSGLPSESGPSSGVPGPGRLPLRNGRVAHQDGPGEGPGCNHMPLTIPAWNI

| SMILES | Functional Activity rNPFF1 I.A. % |
| --- | --- |
| N=C(N)NCCC[C@H](NS(=O)(=O)c1c(F)cccc1F)C(=O)N[C@@H](Cc1ccccc1)C(N)=O [Compound 1004B] | 79% |
| COc1ccc(S(=O)(=O)N[C@@H](CCCNC(=N)N)C(=O)N[C@@H](Cc2ccccc2)C(N)=O)cc1OC [Compound 1015B] | 84% |
| N=C(N)NCCC[C@H](NS(=O)(=O)c1ccc(Cl)c(Cl)c1)C(=O)N[C@@H](Cc1ccccc1)C(N)=O [Compound 1022B] | 86% |
| N=C(N)NCCC[C@H](NS(=O)(=O)c1ccccc1[N+](=O)[O-])C(=O)N[C@@H](Cc1ccccc1)C(N)=O [Compound 1026B] | 79% |
| N#Cc1ccccc1S(=O)(=O)N[C@@H](CCCNC(=N)N)C(=O)N[C@@H](Cc1ccccc1)C(N)=O [Compound 1027B] | 52% |
| N=C(N)NCCC[C@H](NS(=O)(=O)c1ccccc1Br)C(=O)N[C@@H](Cc1ccccc1)C(N)=O [Compound 2001B] | 81% |
| N=C(N)NCCC[C@H](NS(=O)(=O)c1ccc([N+](=O)[O-])cc1[N+](=O)[O-])C(=O)N[C@@H](Cc1ccccc1)C(N)=O [Compound 2002B] | 34% |

same assay, conditions: Table 4; read-out: Functional Activity rNPFF1 EC50

| SMILES | EC50 |
| --- | --- |
| N=C(N)NCCC[C@H](NS(=O)(=O)c1ccc(Cl)c(Cl)c1)C(=O)N[C@@H](Cc1ccccc1)C(N)=O [Compound 1022B] | 1860 nM |

same assay, conditions: Table 5; percent of maximum response elicited by neuropeptide FF

| SMILES | Functional Activity rNPFF1 I.A. % |
| --- | --- |
| N=C(N)NCCC[C@@H](NS(=O)(=O)c1ccc(F)cc1)C(=O)N[C@@H](Cc1ccccc1)C(N)=O [Compound 1028B] | 46% |

same assay, conditions: Table 7, agonist potency; read-out: rNPFF1 EC50

| SMILES | EC50 |
| --- | --- |
| CCCCCCCCc1ccc2nc(NC(=N)N)nc(C)c2c1 [Compound 1009A, N-(4-methyl-6-octyl-2-quinazolinyl)guanidine] | 1490 nM |
| Cc1nc(NC(=N)N)nc2cc3ccoc3cc12 [Compound 1039A, N-(4-methylfuro[2,3-g]quinazolin-2-yl)guanidine] | > 10000 nM |

same assay, conditions: Table 7, intrinsic activity

| SMILES | rNPFF1 IA |
| --- | --- |
| Cc1nc(NC(=N)N)nc2ccc(C(C)(C)C)cc12 [Compound 1004A, N-(6-tert-butyl-4-methyl-2-quinazolinyl)guanidine] | 36% NPFF |
| Cc1nc(NC(=N)N)nc2cc(OCc3ccccc3)ccc12 [Compound 1006A, N-[7-(benzyloxy)-4-methyl-2-quinazolinyl]guanidine] | 15% NPFF |
| Cc1nc(NC(=N)N)nc2ccc(C3CCCCC3)cc12 [Compound 1029A, N-(6-cyclohexyl-4-methyl-2-quinazolinyl)guanidine] | 28% NPFF |
| Cc1nc(NC(=N)N)nc2ccc(Oc3ccccc3)cc12 [Compound 1032A, N-(4-methyl-6-phenoxy-2-quinazolinyl)guanidine] | 31% NPFF |
| Cc1nc(NC(=N)N)nc2ccc(CCCC(C)O)cc12 (stereo not shown) [Compound 1034A, N-(6-[1-(4-hydroxyl-pentyl)]-4-methyl-2-quinazolino)guanidine] | 63% NPFF |
| Cc1nc(NC(=N)N)nc2ccc(Cc3ccccc3)cc12 [Compound 2003A, N-(6-benzyl-4-methyl-2-quinazolinyl)guanidine] | 56% NPFF |
| CCCCc1ccc2nc(NC(=N)N)nc(C)c2c1 [Compound 2004A, N-(6-butyl-4-methyl-2-quinazolinyl)guanidine] | 40% NPFF |
| CCCCCCc1ccc2nc(NC(=N)N)nc(C)c2c1 [Compound 2005A, N-(6-hexyl-4-methyl-2-quinazolinyl)guanidine] | 56% NPFF |
| CCCCCCCc1ccc2nc(NC(=N)N)nc(C)c2c1 [Compound 2006A, N-(6-heptyl-4-methyl-2-quinazolinyl)guanidine] | 38% NPFF |
| CCCCc1ccc2nc(NC(=N)N)cc(C)c2c1 [Compound 5001A, N-(6-butyl-4-methyl-2-quinolinyl)guanidine] | 28% NPFF |

same assay, conditions: agonist: IA>15%; antagonist: Ki≦1.2 mM and IA≦15% at the rat cloned NPFF receptors

| SMILES | classification as agonist or antagonist at the NPFF1 receptor |
| --- | --- |
| N=C(N)NCCC[C@H](NS(=O)(=O)c1c(Cl)cccc1Cl)C(=O)N[C@@H](Cc1ccccc1)C(N)=O [Compound 1019B] | agonists |

target: T2, rat NPFF2 receptor (Rattus norvegicus, UniProt Q9EQD2); assay: Functional assay (agonist potency, intrinsic activity) at cloned rat NPFF2 receptor; format: cell-based; settings: Table 4; percent of maximum response elicited by neuropeptide FF
T2 construct: The full-length NPFF2 was amplified from rat spinal cord cDNA; expressed in transfected cells; host or cells: not given
T2 sequence (Q9EQD2 whole entry): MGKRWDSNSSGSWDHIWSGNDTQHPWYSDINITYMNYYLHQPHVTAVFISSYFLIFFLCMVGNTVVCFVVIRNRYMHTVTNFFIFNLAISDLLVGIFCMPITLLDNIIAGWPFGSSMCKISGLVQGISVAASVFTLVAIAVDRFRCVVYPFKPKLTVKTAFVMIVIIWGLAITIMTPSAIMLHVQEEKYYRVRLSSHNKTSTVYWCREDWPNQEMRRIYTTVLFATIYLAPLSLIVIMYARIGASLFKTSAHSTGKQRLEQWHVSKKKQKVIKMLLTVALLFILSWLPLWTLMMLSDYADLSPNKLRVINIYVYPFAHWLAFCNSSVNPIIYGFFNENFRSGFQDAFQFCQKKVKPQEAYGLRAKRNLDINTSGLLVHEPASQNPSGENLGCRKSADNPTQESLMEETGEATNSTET

| SMILES | Functional Activity rNPFF2 I.A. % |
| --- | --- |
| N=C(N)NCCC[C@H](NS(=O)(=O)c1c(F)cccc1F)C(=O)N[C@@H](Cc1ccccc1)C(N)=O [Compound 1004B] | 43% |
| N=C(N)NCCC[C@H](NS(=O)(=O)c1ccc(F)cc1)C(=O)N[C@@H](Cc1ccccc1)C(N)=O [Compound 1005B] | 46% |
| Cc1ccc(S(=O)(=O)N[C@@H](CCCNC(=N)N)C(=O)N[C@@H](Cc2ccccc2)C(N)=O)cc1 [Compound 1007B] | 55% |
| N=C(N)NCCC[C@H](NS(=O)(=O)c1ccc(Cl)cc1Cl)C(=O)N[C@@H](Cc1ccccc1)C(N)=O [Compound 1010B] | 28% |
| COc1ccc(S(=O)(=O)N[C@@H](CCCNC(=N)N)C(=O)N[C@@H](Cc2ccccc2)C(N)=O)cc1OC [Compound 1015B] | 74% |
| N=C(N)NCCC[C@H](NS(=O)(=O)c1ccc(Cl)c(Cl)c1)C(=O)N[C@@H](Cc1ccccc1)C(N)=O [Compound 1022B] | 34% |
| N=C(N)NCCC[C@H](NS(=O)(=O)c1ccccc1[N+](=O)[O-])C(=O)N[C@@H](Cc1ccccc1)C(N)=O [Compound 1026B] | 59% |
| N#Cc1ccccc1S(=O)(=O)N[C@@H](CCCNC(=N)N)C(=O)N[C@@H](Cc1ccccc1)C(N)=O [Compound 1027B] | 48% |
| N=C(N)NCCC[C@H](NS(=O)(=O)c1ccccc1Br)C(=O)N[C@@H](Cc1ccccc1)C(N)=O [Compound 2001B] | 9% |
| N=C(N)NCCC[C@H](NS(=O)(=O)c1ccc([N+](=O)[O-])cc1[N+](=O)[O-])C(=O)N[C@@H](Cc1ccccc1)C(N)=O [Compound 2002B] | 5% |

same assay, conditions: Table 4; read-out: Functional Activity rNPFF2 EC50

| SMILES | EC50 |
| --- | --- |
| N=C(N)NCCC[C@H](NS(=O)(=O)c1c(F)cccc1F)C(=O)N[C@@H](Cc1ccccc1)C(N)=O [Compound 1004B] | > 3160 nM |
| N=C(N)NCCC[C@H](NS(=O)(=O)c1ccc(Cl)c(Cl)c1)C(=O)N[C@@H](Cc1ccccc1)C(N)=O [Compound 1022B] | > 3160 nM |

same assay, conditions: Table 5; percent of maximum response elicited by neuropeptide FF

| SMILES | Functional Activity rNPFF2 I.A. % |
| --- | --- |
| N=C(N)NCCC[C@@H](NS(=O)(=O)c1ccc(F)cc1)C(=O)N[C@@H](Cc1ccccc1)C(N)=O [Compound 1028B] | 62% |

same assay, conditions: Table 7, intrinsic activity

| SMILES | rNPFF2 IA |
| --- | --- |
| Cc1ccc2nc(NC(=N)N)nc(C)c2c1 [Compound 1002A, N-(4,6-dimethyl-2-quinazolinyl)guanidine] | 24% NPFF |
| Cc1nc(NC(=N)N)nc2ccc(C(C)(C)C)cc12 [Compound 1004A, N-(6-tert-butyl-4-methyl-2-quinazolinyl)guanidine] | 90% NPFF |
| Cc1nc(NC(=N)N)nc2cc(OCc3ccccc3)ccc12 [Compound 1006A, N-[7-(benzyloxy)-4-methyl-2-quinazolinyl]guanidine] | 22% NPFF |
| CCCc1ccc2nc(NC(=N)N)nc(C)c2c1 [Compound 1008A, N-(4-methyl-6-propyl-2-quinazolinyl)guanidine] | 85% NPFF |
| CCCCCCCCc1ccc2nc(NC(=N)N)nc(C)c2c1 [Compound 1009A, N-(4-methyl-6-octyl-2-quinazolinyl)guanidine] | 22% NPFF |
| Cc1nc(NC(=N)N)nc2ccc(-c3ccccc3)cc12 [Compound 1010A, N-(4-methyl-6-phenyl-2-quinazolinyl)guanidine] | 22% NPFF |
| CCCCOc1ccc2nc(NC(=N)N)nc(C)c2c1 [Compound 1012A, N-(6-butoxy-4-methyl-2-quinazolinyl)guanidine] | 80% NPFF |
| Cc1nc(NC(=N)N)nc2cc(Br)ccc12 [Compound 1014A, N-(7-bromo-4-methyl-2-quinazolinyl)guanidine] | 47% NPFF |
| Cc1cc2nc(NC(=N)N)nc(C)c2cc1C [Compound 1015A, N-(4,6,7-trimethyl-2-quinazolinyl)guanidine] | 56% NPFF |
| COc1cc2c(C)nc(NC(=N)N)nc2cc1C [Compound 1016A, N-(6-methoxy-4,7-dimethyl-2-quinazolinyl)guanidine] | 74% NPFF |
| Cc1cc2nc(NC(=N)N)nc(C)c2cc1O [Compound 1017A, N-(6-hydroxy-4,7-dimethyl-2-quinazolinyl)guanidine] | 23% NPFF |
| Cc1nc(NC(=N)N)nc2cc(F)c(F)cc12 [Compound 1019A, N-(6,7-difluoro-4-methyl-2-quinazolinyl)guanidine] | 31% NPFF |
| Cc1nc(NC(=N)N)nc2cc(C(C)C)ccc12 [Compound 1021A, N-(7-isopropyl-4-methyl-2-quinazolinyl)guanidine] | 76% NPFF |
| Cc1nc(NC(=N)N)nc2cc(OC(C)C)ccc12 [Compound 1025A, N-[4-methyl-7-(isopropoxy)-2-quinazolinyl]guanidine] | 27% NPFF |
| Cc1nc(NC(=N)N)nc2ccc(Br)cc12 [Compound 1026A, N-(6-bromo-4-methyl-2-quinazolinyl)guanidine] | 19% NPFF |
| Cc1nc(NC(=N)N)nc2ccc(OCc3ccccc3)cc12 [Compound 1028A, N-[6-(benzyloxy)-4-methyl-2-quinazolinyl]guanidine] | 79% NPFF |
| Cc1nc(NC(=N)N)nc2ccc(C3CCCCC3)cc12 [Compound 1029A, N-(6-cyclohexyl-4-methyl-2-quinazolinyl)guanidine] | 31% NPFF |
| Cc1nc(NC(=N)N)nc2ccc(OC(F)(F)F)cc12 [Compound 1030A, N-[4-methyl-6-(trifluoromethoxy)-2-quinazolinyl]guanidine] | 85% NPFF |
| CCCCCOc1ccc2nc(NC(=N)N)nc(C)c2c1 [Compound 1031A, N-[4-methyl-6-(pentyloxy)-2-quinazolinyl]guanidine] | 66% NPFF |

| SMILES | rNPFF2 IA |
| --- | --- |
| Cc1nc(NC(=N)N)nc2ccc(Oc3ccccc3)cc12 [Compound 1032A, N-(4-methyl-6-phenoxy-2-quinazolinyl)guanidine] | 93% NPFF |
| Cc1ccc(Oc2ccc3nc(NC(=N)N)nc(C)c3c2)cc1 [Compound 1033A, N-[4-methyl-6-(4-methylphenoxy)-2-quinazolinyl]guanidine] | 51% NPFF |
| Cc1nc(NC(=N)N)nc2ccc(CCCC(C)O)cc12 (stereo not shown) [Compound 1034A, N-(6-[1-(4-hydroxyl-pentyl)]-4-methyl-2-quinazolino)guanidine] | 101% NPFF |
| Cc1nc(NC(=N)N)nc2cc(C(C)O)ccc12 (stereo not shown) [Compound 1035A, N-[7-(1-hydroxyethyl)-4-methyl-2-quinazolinyl]guanidine] | 52% NPFF |
| Cc1nc(NC(=N)N)nc2cc(OC(F)(F)F)ccc12 [Compound 1036A, N-[4-methyl-7-(trifluoromethoxy)-2-quinazolinyl]guanidine] | 78% NPFF |
| Cc1nc(NC(=N)N)nc2cc3c(cc12)C=CCC3 [Compound 1037A, N-(4-methyl-8,9-dihydrobenzo[g]quinazolin-2-yl)guanidine] | 71% NPFF |
| Cc1nc(NC(=N)N)nc2cc3ccoc3cc12 [Compound 1039A, N-(4-methylfuro[2,3-g]quinazolin-2-yl)guanidine] | 78% NPFF |
| Cc1nc(NC(=N)N)nc2ccc(Cc3ccccc3)cc12 [Compound 2003A, N-(6-benzyl-4-methyl-2-quinazolinyl)guanidine] | 89% NPFF |
| CCCCc1ccc2nc(NC(=N)N)nc(C)c2c1 [Compound 2004A, N-(6-butyl-4-methyl-2-quinazolinyl)guanidine] | 101% NPFF |
| CCCCCCc1ccc2nc(NC(=N)N)nc(C)c2c1 [Compound 2005A, N-(6-hexyl-4-methyl-2-quinazolinyl)guanidine] | 81% NPFF |
| CCCCCCCc1ccc2nc(NC(=N)N)nc(C)c2c1 [Compound 2006A, N-(6-heptyl-4-methyl-2-quinazolinyl)guanidine] | 47% NPFF |
| Cc1ccc2nc(NC(=N)N)cc(C)c2c1 [Compound 4001A, N-(4,6-dimethyl-2-quinolinyl)guanidine] | 68% NPFF |
| Cc1cc(NC(=N)N)nc2ccc(-c3ccccc3)cc12 [Compound 4003A, N-(4-methyl-6-phenyl-2-quinolinyl)guanidine] | 26% NPFF |
| COc1ccc2nc(NC(=N)N)cc(C)c2c1 [Compound 4004A, N-(6-methoxy-4-methyl-2-quinolinyl)guanidine] | 65% NPFF |
| Cc1cc(NC(=N)N)nc2cc(F)ccc12 [Compound 4007A, N-(7-fluoro-4-methyl-2-quinolinyl)guanidine] | 17% NPFF |
| Cc1cc(C)c2c(C)cc(NC(=N)N)nc2c1 [Compound 4008A, N-(4,5,7-trimethyl-2-quinolinyl)guanidine] | 65% NPFF |
| Cc1cc(NC(=N)N)nc2ccc3ccccc3c12 [Compound 4009A, N-(1-methylbenzo[f]quinolin-3-yl)guanidine] | 70% NPFF |
| CCCCc1ccc2nc(NC(=N)N)cc(C)c2c1 [Compound 5001A, N-(6-butyl-4-methyl-2-quinolinyl)guanidine] | 82% NPFF |

same assay, conditions: agonist: IA>15%; antagonist: Ki≦1.2 mM and IA≦15% at the rat cloned NPFF receptors

| SMILES | classification as agonist or antagonist at the NPFF2 receptor |
| --- | --- |
| N=C(N)NCCC[C@H](NS(=O)(=O)c1c(Cl)cccc1Cl)C(=O)N[C@@H](Cc1ccccc1)C(N)=O [Compound 1019B] | agonists |
